The values that follow come from paper PMC8101546 (Biochimica et biophysica acta. Molecular cell research, 2018).

In one test the test system is 35 kDa protein. The format is binding, human. The settings on record: U2OS cell extracts; for IC50: read-out: IC50 for displacement of photolabeling of the 35 kDa band, [32P]-5N3-8-ethynyl-NAADP (0.23 nM) photoprobe, densitometry.
Another test relates to 23 kDa protein. The format is binding, human. The settings on record: U2OS cell extracts; for IC50: read-out: IC50 for displacement of photolabeling of the 23 kDa protein, [32P]-5N3-8-ethynyl-NAADP (0.23 nM) photoprobe, densitometry.
A further test deals with U2OS cells. The test is described as follows: Ca2+ mobilization after microinjection into U2OS cells expressing GCaMP6M. As to conditions: GCaMP6M fluorescence. The format is cell-based, human.
Test [1] concerns the target NAADP receptor. The test is described as follows: Ca2+ release assay in sea urchin egg homogenate. Type of test: biochemical, Strongylocentrotus purpuratus. As to conditions: read-out: Ca2+ mobilizing EC50, fluo-3, n = 3, ± STDEV.
The target of test [2] is NAADP receptor. In words: Self-desensitization to subsequent 1 μM NAADP in sea urchin egg homogenate. Type of test: biochemical, Strongylocentrotus purpuratus. As to conditions: read-out: IC50 for desensitization to NAADP-evoked Ca2+ release, subsequent addition of 1 μM NAADP, n = 3, ± STDEV.

What is called IC50 is the concentration needed to halve the response being measured. For the compound `Nc1ncnc2c1ncn2[C@@H]1O[C@H](COP(=O)(O)OP(=O)(O)OCC2OC([n+]3cccc(C(=O)[O-])c3)C(O)C2O)[C@@H](O)[C@H]1OP(=O)(O)O` (stereo in doubt) [NAADP, nicotinic acid adenine dinucleotide 2′-phosphate], the “lower affinity of the 35 kDa band in contrast to the 23 kDa band” value with 35 kDa protein (ratio of IC50 values 35 kDa/23 kDa) is listed as ~ 8 fold. Besides, the results for the IC50 with 35 kDa protein and in the test on 23 kDa protein were 213 ± 19 nM and 27 ± 1.3 nM, respectively. The “displacement of 23 kDa photolabeling, more penetrant compared to NADP” value with 23 kDa protein (ratio of IC50 values NADP/NAADP) was ~ 9 fold. The “peak F/F0 (Ca2+ response)” value with U2OS cells (100 nM in pipette, n = 3 injections) is listed as 4.01 ± 1.2.

Broadly, the EC50 is the concentration giving half of the maximal effect. With `C#Cc1nc2c(N)ncnc2n1C1OC(COP(=O)(O)OP(=O)(O)OC[C@H]2O[C@@H]([n+]3cc(N=[N+]=[N-])cc(C(=O)[O-])c3)[C@H](O)[C@@H]2O)C(O)C1OP(=O)(O)O` (some centres unmarked) [5N3-8-ethynyl-NAADP, 5-Azido-8-ethynyl-NAADP], the EC50 on NAADP receptor [1] stood at 2860 ± 400 nM. Besides, the IC50 at NAADP receptor [2] was found to be 99 ± 7.7 nM. Moreover, the “peak F/F0 (Ca2+ response)” value in the test on U2OS cells (1 μM in pipette, n = 3) is recorded as 2.14 ± 0.37; in the test on U2OS cells (10 μM in pipette, n = 3) it was 2.8 ± 0.33.

As to `NC(=O)c1ccc[n+]([C@@H]2O[C@H](COP(=O)([O-])OP(=O)(O)OC[C@H]3O[C@@H](n4cnc5c(N)ncnc54)[C@H](OP(=O)(O)O)[C@@H]3O)[C@@H](O)[C@H]2O)c1` [NADP, nicotinamide adenine dinucleotide 2′-phosphate], the IC50 in the test on 35 kDa protein turned out to be 940 ± 204 nM; in the test with 23 kDa protein it was 246 ± 13 nM.
